In patent publication US4686221A, “Quinolinecarboxylic acid compounds and antimicrobial agent containing the same” (Kanebo, Ltd., priority 1985, dated 1987) one finds MIC, ED50 and LD50 data, which are given here for ten molecules.

In series [1] the test system is Escherichia coli KC-14. In words: Antibacterial activity in vitro (minimum inhibitory concentration: MIC). Format: cell-based. The protocol:
(§1) (1) Measurement of antibacterial activity in vitro (minimum inhibitory concentration: MIC):
(§2) The test compounds were each dissolved in 0.1N aqueous potassium hydroxide or sterilized distilled water and diluted with sterilized distilled water to give a standard solution (concentration: 1,000 μg/ml). The test was carried out by a method as appointed by Japan Society of Chemotherapy [cf. Chemotherapy, 29, 76-79 (1981) (TOKYO)].

In series [2] the test system is Escherichia coli KC-14. In words: Antibacterial activity in vivo (effect against systemic infection: ED50), E. coli infected mice. The settings on record: read-out: Antibacterial activity ED50 (50% effective dose). Also noted: species or system ddY male mice infected with Escherichia coli. How it is done:
(§3) (2) Measurement of antibacterial activity in vivo (effect against systemic infection: ED50):
(§4) The test microorganism was cultured by stationary culture in an agar medium (Trypto-Soya Agar "Nissui", manufactured by Nissui Seiyaku K.K., Japan) at 37° C. for 16 to 18 hours. The culture was diluted with PBS (Dulbecco's phosphate buffered saline) and then was mixed with an equiamount of 10% (W/V) mucin (BACTO MUCIN BACTERIOLOGICAL, manufactured by Difco Co.). The mixture thus prepared was intraperitoneally inoculated to fasted ddY male mice (4 weeks age, weighing 18-20 g, one group: 5 mice) in a dose of 0.5 ml. The inoculum size was 1.3×10^7 CFU/mouse in case of S. aureus IID 803, and 9.7×10^3 CFU/mouse in case of E. coli KC-14.
(§5) The mice were daily observed for one week, and from the survival number of mice after one week, the 50% effective dose (ED50) was calculated by the Weil method.

Series [3] has as its system Staphylococcus aureus IID 803. In words: Antibacterial activity in vivo (effect against systemic infection: ED50), S. aureus infected mice. The arrangement: species or system ddY male mice infected with Staphylococcus aureus. As to conditions: read-out: Antibacterial activity ED50 (50% effective dose). How it is done: (§6) Staphylococcus aureus IID 803
as §3, §4, §5

The test system of series [4] is Staphylococcus aureus IID 803. Nature of the series: Antibacterial activity in vitro (minimum inhibitory concentration: MIC). The series is classed as cell-based. How it is done:
as §6, §1, §2

A further series in a line: in vivo. The settings on record: mouse, po.
Where [5] appears, read: KC14, E. coli KC-14, in vitro, read-out: Antibacterial activity MIC (minimum inhibitory concentration).
The mark [6] stands for this setting: KC14, 168 h, E. coli KC-14 systemic infection, mice, oral 1 h after infection, survival after one week.
Setting [7] is: IID803, 168 h, S. aureus IID 803 systemic infection, mice, oral 1 h after infection, survival after one week.
The mark [8] stands for this setting: IID803, S. aureus IID 803, in vitro, read-out: Antibacterial activity MIC (minimum inhibitory concentration).

Each structure is given as a SMILES string. Converted amounts (≈) assume the structure as drawn. Counter-ions that a name gives are not always drawn. Like-named read-outs stand apart in the source and are kept apart here.

For `CCn1cc(C(=O)O)c(=O)c2cc(F)c(N3CCNCC3)cc21` [A, 1-Ethyl-6-fluoro-1,4-dihydro-7-(piperazin-1-yl)-4-oxoquinoline-3-carboxylic acid, reference compound], the MIC is 0.2 µg/mL (≈ 0.626 µM) in the series on Escherichia coli KC-14 [1] (setting [5]) and 1.56 µg/mL (≈ 4.89 µM) in series [4] (setting [8]). In addition, the ED50 in the series on Escherichia coli KC-14 [2] (setting [6]) worked out at 5.82 mg/kg; in series [3] (setting [7]), 225 mg/kg.
As for `Cl.O=C(O)c1cn(C2CC2)c2cc(N3CCNCC3)c(F)cc2c1=O` [B, 1-Cyclopropyl-6-fluoro-1,4-dihydro-7-(piperazin-1-yl)-4-oxoquinoline-3-carboxylic acid hydrochloride, reference compound], the MIC came out at 0.0125 µg/mL in the series on Escherichia coli KC-14 [1] (KC14, read-out: Antibacterial activity MIC (minimum inhibitory concentration)) and 0.78 µg/mL in series [4] (IID803, read-out: Antibacterial activity MIC (minimum inhibitory concentration)). Also, the ED50 with Escherichia coli KC-14 [2] (KC14, po, 168 h) was 0.84 mg/kg; in series [3] (IID803, po, 168 h) it was 46.7 mg/kg.
In the case of `CCn1cc(C(=O)O)c(=O)c2cc(F)c(N3CCNCC3)c(F)c21.Cl` [C, 1-Ethyl-6,8-difluoro-1,4-dihydro-7-(piperazin-1-yl)-4-oxoquinoline-3-carboxylic acid hydrochloride, reference compound], the LD50 at 336 h in the series “in vivo” came to 1070 mg/kg. For the same molecule, the MIC in the series on Escherichia coli KC-14 [1] (setting [5]) worked out at 0.1 µg/mL; in series [4] (setting [8]), 0.78 µg/mL. For the same molecule, the results for the ED50 (with Escherichia coli KC-14 [2] (setting [6]); in series [3] (setting [7])) were 1.46 mg/kg and 40.3 mg/kg, respectively.
`Cl.O=C(O)c1cn(CCF)c2c(F)c(N3CCNCC3)c(F)cc2c1=O` [D, 6,8-Difluoro-1-(2-fluoroethyl)-1,4-dihydro-7-(piperazin-1-yl)-4-oxoquinoline-3-carboxylic acid hydrochloride, reference compound]: the MIC with Escherichia coli KC-14 [1] (setting [5]) was 0.2 µg/mL; in series [4] (setting [8]) it was 1.56 µg/mL. Further, the ED50 came to 5.82 mg/kg with Escherichia coli KC-14 [2] (setting [6]) and 123 mg/kg in series [3] (setting [7]).
`Cl.O=C(O)c1cn(C2CC2)c2c(F)c(N3CCNCC3)c(F)cc2c1=O` [E, 1-Cyclopropyl-6,8-difluoro-1,4-dihydro-7-(piperazin-1-yl)-4-oxoquinoline-3-carboxylic acid hydrochloride, reference compound] yielded an LD50 at 336 h in the series “in vivo” of 1410 mg/kg. Also, the MIC worked out at 0.0125 µg/mL with Escherichia coli KC-14 [1] (setting [5]) and 0.2 µg/mL in series [4] (setting [8]). Besides, the ED50 came to 0.28 mg/kg in the series with Escherichia coli KC-14 [2] (setting [6]) and 5.07 mg/kg in series [3] (setting [7]).
`CCn1cc(C(=O)O)c(=O)c2cc(F)c(N3CCN(O)CC3)cc21` [compound 1, 1-Ethyl-6-fluoro-1,4-dihydro-7-(4-hydroxypiperazin-1-yl)-4-oxoquinoline-3-carboxylic acid] yielded an LD50 at 336 h in “in vivo” of over 4000 mg/kg. In addition, the MIC stood at 0.39 µg/mL (≈ 1.16 µM) with Escherichia coli KC-14 [1] (setting [5]) and 1.56 µg/mL (≈ 4.65 µM) in series [4] (setting [8]). The median effective dose (ED50) with Escherichia coli KC-14 [2] (setting [6]) was found to be 1.92 mg/kg; in series [3] (setting [7]), 187 mg/kg.
The matching figures for `O=C(O)c1cn(C2CC2)c2cc(N3CCN(O)CC3)c(F)cc2c1=O` [compound 2, 1-Cyclopropyl-6-fluoro-1,4-dihydro-7-(4-hydroxypiperazin-1-yl)-4-oxoquinoline-3-carboxylic acid hydrochloride 1/4 hydrate]: over 4000 mg/kg, 0.025 µg/mL, 0.78 µg/mL, 0.37 mg/kg and 17.7 mg/kg.
On to `CCn1cc(C(=O)O)c(=O)c2cc(F)c(N3CCN(O)CC3)c(F)c21.Cl` [compound 3, 1-Ethyl-6,8-difluoro-1,4-dihydro-7-(4-hydroxypiperazin-1-yl)-4-oxoquinoline-3-carboxylic acid hydrochloride], for which, in “in vivo”, the LD50 at 336 h is over 4000 mg/kg. Besides, the figures for the MIC (in the series with Escherichia coli KC-14 [1] (setting [5]); in series [4] (setting [8])) were 0.2 µg/mL and 0.78 µg/mL, respectively. Besides, the 50% effective dose (ED50) was 0.84 mg/kg with Escherichia coli KC-14 [2] (setting [6]) and 26.8 mg/kg in series [3] (setting [7]).
The matching figures for `Cl.O.O=C(O)c1cn(CCF)c2c(F)c(N3CCN(O)CC3)c(F)cc2c1=O` [compound 4, 6,8-Difluoro-1-(2-fluoroethyl)-1,4-dihydro-7-(4-hydroxypiperazin-1-yl)-4-oxoquinoline-3-carboxylic acid hydrochloride monohydrate]: over 4000 mg/kg, 0.39 µg/mL, 1.56 µg/mL, 1.46 mg/kg and 107 mg/kg.
For the molecule `Cl.O=C(O)c1cn(C2CC2)c2c(F)c(N3CCN(O)CC3)c(F)cc2c1=O` [compound 5, 1-Cyclopropyl-6,8-difluoro-1,4-dihydro-7-(4-hydroxypiperazin-1-yl)-4-oxoquinoline-3-carboxylic acid hydrochloride], the LD50 at 336 h in “in vivo” is over 4000 mg/kg. Also, the MIC with Escherichia coli KC-14 [1] (setting [5]) stood at 0.05 µg/mL; in series [4] (setting [8]) it was 0.39 µg/mL. Moreover, the 50% effective dose (ED50) was 0.19 mg/kg in the series on Escherichia coli KC-14 [2] (setting [6]) and 3.84 mg/kg in series [3] (setting [7]).

What is called ED50 is the dose at which the effect has come halfway, by size or by number of responders. Usually LD50 stands for the dose at which mortality reaches 50%.
